Test [1] deals with T1, Ephrin type-B receptor 4 (Homo sapiens) (UniProt P54760).
T1 sequence (whole entry): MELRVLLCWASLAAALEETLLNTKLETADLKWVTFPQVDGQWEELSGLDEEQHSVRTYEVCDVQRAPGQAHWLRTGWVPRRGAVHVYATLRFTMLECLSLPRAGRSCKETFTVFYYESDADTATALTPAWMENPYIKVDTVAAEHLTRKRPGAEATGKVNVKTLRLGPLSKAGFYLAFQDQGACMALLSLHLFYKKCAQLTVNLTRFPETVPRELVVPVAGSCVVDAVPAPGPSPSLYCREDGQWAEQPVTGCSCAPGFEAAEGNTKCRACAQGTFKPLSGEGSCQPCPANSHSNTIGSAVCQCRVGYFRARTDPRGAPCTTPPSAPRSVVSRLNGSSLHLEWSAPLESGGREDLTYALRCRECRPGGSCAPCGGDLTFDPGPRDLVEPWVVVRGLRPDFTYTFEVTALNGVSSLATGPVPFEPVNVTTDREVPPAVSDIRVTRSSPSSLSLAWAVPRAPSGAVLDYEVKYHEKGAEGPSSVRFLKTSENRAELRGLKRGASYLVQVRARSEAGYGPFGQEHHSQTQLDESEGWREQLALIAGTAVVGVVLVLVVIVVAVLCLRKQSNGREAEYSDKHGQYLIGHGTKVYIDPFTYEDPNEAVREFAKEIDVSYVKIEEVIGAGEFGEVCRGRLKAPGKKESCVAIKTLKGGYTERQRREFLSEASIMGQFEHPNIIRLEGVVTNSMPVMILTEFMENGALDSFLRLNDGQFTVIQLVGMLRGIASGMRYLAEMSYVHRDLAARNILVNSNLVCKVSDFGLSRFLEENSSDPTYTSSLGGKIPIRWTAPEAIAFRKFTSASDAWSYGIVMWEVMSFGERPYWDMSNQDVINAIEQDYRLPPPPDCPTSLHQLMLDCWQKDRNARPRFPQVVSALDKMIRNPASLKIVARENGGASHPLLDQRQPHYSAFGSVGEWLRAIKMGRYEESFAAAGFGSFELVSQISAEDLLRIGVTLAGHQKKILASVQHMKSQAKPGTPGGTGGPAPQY
Kind of test: Residual activity of EPHB4 at 10 uM by microplate scintillation counting.

The target of test [2] is T2, Serine/threonine-protein kinase Sgk2 (Homo sapiens) (UniProt Q9HBY8).
T2 sequence (whole entry): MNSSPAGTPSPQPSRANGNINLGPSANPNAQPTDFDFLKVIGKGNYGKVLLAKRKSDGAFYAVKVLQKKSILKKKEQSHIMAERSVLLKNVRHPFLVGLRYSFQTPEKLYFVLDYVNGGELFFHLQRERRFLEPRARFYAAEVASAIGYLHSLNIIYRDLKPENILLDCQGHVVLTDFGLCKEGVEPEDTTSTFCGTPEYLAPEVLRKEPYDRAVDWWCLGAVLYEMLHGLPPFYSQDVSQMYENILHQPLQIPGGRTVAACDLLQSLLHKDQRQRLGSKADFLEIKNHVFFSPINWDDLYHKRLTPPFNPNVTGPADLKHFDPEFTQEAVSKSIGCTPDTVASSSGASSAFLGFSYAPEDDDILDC
Kind of test: Residual activity of SGK2 at 1 uM by microplate scintillation counting.

Test [3] deals with Tyrosine-protein kinase Lck (Homo sapiens) (UniProt P06239). Description: Residual activity of LCK at 10 uM by microplate scintillation counting.
Chain of Tyrosine-protein kinase Lck (Homo sapiens) (P06239 2-509 limits assumed): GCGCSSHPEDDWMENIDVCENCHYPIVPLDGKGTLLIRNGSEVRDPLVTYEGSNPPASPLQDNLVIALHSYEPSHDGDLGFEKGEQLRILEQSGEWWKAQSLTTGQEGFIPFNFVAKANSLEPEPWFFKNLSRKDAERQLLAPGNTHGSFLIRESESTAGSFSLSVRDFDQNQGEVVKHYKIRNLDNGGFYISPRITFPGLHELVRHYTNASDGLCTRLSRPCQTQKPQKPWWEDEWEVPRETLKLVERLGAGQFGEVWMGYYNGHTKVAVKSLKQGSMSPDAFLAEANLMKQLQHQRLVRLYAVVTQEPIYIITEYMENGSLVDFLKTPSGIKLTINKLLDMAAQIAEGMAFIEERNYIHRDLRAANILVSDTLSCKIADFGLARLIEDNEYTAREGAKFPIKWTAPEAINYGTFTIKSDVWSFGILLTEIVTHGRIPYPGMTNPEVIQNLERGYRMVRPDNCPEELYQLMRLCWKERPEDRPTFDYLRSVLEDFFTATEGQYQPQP
Test [4] has as its target SRSF protein kinase 2 (Homo sapiens) (UniProt P78362). Description: Residual activity of SRPK2 at 0.1 uM by microplate scintillation counting.
Test [5] addresses T3, Interleukin-1 receptor-associated kinase 4 (Homo sapiens) (UniProt Q9NWZ3).
T3 sequence (whole entry): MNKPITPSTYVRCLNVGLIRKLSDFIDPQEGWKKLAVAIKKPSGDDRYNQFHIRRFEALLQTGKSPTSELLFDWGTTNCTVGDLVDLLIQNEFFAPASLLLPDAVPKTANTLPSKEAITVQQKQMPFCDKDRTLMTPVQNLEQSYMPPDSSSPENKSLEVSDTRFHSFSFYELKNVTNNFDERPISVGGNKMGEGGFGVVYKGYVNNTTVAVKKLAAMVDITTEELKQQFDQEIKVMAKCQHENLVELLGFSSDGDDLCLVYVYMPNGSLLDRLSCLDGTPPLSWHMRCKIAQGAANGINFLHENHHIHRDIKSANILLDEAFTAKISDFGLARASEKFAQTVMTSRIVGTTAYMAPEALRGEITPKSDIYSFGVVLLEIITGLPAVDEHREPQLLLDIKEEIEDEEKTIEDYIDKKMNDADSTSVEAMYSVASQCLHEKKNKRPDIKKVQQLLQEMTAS
Kind of test: Residual activity of IRAK4 at 0.1 uM by microplate scintillation counting.

For test [6], the target named is CDK9/cyclin T1 (Homo sapiens) (UniProt O60563+P50750). Description: Residual activity of CDK9/Cyclin T at 1 uM by microplate scintillation counting. The class given is protein-complex assay.
In test [7] the target is Serine/threonine-protein kinase MRCK beta (Homo sapiens) (UniProt Q9Y5S2). Kind of test: Residual activity of CDC42BPB at 1 uM by microplate scintillation counting.
Chain of Serine/threonine-protein kinase MRCK beta (Homo sapiens) (Q9Y5S2 whole entry): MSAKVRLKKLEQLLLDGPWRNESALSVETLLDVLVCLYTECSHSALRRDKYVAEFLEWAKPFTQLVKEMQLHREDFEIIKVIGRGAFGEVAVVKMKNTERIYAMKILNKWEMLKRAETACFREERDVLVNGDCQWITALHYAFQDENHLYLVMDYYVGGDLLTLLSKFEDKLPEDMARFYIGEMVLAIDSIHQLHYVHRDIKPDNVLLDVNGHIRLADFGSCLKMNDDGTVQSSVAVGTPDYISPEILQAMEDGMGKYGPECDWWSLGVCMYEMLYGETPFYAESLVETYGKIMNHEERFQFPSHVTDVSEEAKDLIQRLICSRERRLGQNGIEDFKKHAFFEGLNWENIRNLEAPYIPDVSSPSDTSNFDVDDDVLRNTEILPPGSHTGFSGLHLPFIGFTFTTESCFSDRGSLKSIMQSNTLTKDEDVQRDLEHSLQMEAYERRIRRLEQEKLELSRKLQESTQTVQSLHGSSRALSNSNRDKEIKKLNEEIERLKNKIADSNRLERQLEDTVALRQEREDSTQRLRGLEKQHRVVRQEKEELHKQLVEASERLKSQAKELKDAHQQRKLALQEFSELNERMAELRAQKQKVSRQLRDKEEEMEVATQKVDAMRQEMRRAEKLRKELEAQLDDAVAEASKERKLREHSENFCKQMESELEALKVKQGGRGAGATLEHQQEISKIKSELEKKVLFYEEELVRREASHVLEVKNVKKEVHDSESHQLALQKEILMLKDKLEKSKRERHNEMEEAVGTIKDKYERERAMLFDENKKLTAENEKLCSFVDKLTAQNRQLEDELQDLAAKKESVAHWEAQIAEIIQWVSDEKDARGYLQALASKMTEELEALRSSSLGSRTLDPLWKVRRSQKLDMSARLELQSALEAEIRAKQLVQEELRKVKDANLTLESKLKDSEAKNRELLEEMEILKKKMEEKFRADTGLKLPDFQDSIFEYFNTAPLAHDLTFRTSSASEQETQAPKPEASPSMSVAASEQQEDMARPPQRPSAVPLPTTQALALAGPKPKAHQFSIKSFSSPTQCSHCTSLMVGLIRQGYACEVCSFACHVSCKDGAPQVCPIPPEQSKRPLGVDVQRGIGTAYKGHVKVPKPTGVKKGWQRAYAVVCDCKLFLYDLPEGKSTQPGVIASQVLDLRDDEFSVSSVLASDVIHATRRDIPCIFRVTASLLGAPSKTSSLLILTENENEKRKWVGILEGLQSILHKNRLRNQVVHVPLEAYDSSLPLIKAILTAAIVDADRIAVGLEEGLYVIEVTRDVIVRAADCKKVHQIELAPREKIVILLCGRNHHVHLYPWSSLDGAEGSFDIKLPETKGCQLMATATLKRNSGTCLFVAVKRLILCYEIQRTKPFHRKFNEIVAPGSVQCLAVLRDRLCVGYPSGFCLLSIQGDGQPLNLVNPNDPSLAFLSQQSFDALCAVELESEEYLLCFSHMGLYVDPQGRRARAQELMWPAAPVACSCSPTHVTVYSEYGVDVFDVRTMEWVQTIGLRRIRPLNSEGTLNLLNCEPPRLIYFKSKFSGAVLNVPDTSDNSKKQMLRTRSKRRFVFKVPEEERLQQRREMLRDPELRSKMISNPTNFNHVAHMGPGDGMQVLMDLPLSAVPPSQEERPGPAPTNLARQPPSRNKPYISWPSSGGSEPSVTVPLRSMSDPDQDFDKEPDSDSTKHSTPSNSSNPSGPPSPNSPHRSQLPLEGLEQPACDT
Test [8] concerns the target T4, Serine/threonine-protein kinase D2 (Homo sapiens) (UniProt Q9BZL6).
T4 sequence (whole entry): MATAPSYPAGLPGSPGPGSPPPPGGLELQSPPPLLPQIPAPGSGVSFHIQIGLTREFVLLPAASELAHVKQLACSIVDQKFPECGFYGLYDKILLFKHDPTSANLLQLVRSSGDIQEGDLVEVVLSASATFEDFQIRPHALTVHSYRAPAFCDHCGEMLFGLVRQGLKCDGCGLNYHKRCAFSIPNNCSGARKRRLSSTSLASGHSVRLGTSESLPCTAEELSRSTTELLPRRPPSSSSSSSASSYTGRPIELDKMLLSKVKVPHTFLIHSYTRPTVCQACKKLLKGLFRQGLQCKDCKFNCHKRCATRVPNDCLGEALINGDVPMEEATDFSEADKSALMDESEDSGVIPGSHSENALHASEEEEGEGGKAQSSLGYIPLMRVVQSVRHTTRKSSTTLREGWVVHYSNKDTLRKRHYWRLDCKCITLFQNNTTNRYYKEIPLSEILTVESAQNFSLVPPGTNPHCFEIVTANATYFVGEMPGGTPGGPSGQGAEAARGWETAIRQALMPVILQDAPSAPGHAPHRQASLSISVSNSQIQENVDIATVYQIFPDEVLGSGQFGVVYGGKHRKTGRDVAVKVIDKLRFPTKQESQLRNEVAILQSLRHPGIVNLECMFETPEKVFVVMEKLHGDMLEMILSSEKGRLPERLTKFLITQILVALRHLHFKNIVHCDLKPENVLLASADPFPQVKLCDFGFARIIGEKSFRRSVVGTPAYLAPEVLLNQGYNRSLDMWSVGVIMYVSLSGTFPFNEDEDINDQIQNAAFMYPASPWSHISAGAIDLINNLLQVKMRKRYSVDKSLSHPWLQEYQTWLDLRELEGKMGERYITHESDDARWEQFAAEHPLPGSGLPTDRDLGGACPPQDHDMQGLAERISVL
Kind of test: Residual activity of PRKD2 at 10 uM by microplate scintillation counting.

This is an account of results in ChEMBL document CHEMBL1152560, “Substituted 2-arylbenzothiazoles as kinase inhibitors: hit-to-lead optimization” (Bioorg Med Chem, 2009).

By residual activity is commonly meant the signal under treatment as a percentage of the control signal.

Chain of SRSF protein kinase 2 (Homo sapiens) (P78362 whole entry, looked up): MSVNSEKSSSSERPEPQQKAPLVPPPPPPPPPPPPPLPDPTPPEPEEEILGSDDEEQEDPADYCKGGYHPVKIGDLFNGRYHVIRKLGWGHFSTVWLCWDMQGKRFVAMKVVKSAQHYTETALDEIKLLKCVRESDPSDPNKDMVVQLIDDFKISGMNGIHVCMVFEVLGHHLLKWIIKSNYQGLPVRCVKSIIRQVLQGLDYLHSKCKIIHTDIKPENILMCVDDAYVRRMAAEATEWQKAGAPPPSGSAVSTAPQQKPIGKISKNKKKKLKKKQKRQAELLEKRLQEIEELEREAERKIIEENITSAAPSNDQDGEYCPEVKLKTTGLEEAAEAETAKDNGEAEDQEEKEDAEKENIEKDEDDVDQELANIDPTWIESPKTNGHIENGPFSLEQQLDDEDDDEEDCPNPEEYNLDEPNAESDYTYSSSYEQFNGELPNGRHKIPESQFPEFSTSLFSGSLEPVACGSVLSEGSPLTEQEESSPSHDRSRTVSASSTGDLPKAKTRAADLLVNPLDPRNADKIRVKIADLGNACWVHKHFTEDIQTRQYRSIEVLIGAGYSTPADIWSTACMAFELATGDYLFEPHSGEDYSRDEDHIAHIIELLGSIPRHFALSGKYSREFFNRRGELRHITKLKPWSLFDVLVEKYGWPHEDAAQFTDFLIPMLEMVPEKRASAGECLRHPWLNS

`COc1cc2c(Oc3ccc(-c4nc5ccccc5s4)cc3)ncnc2cc1OCCCN1CCCC1`: the residual activity in test [1] is 122%; in test [2], 93%; in test [3], 6%; in test [4], 96%; in test [5], 96%; in test [6] it was 93%. The residual activity turned out to be 99% in test [7] and 136% in test [8].

For the compound `COc1cc2c(Oc3ccc(-c4nc5ccccc5s4)cc3F)ncnc2cc1OCCCN1CCN(C)CC1`, the residual activity worked out at 99% in test [1]; 93% in test [2]; 2% in test [3]; 100% in test [4]; 101% in test [5]; 92% in test [6]. Further, the results for the residual activity in test [7] and in test [8] were 90% and 128%, respectively.

On to `COc1cc2c(Oc3ccc(-c4nc5ccccc5s4)cc3)ncnc2cc1OCCCN1CCN(C)CC1`, for which the residual activity in test [1] came to 154%; in test [2], 95%; in test [3], 4%; in test [4], 103%; in test [5] it was 100%; in test [6], 102%. Also, the residual activity in test [7] is 100%; in test [8], 146%.
